Assay results reported in ChEMBL document CHEMBL1201862, “PubChem BioAssay data set” (2004).
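Briefly, cells in 96-well plates were exposed to five compound concentrations for 48 h, and endpoints were estimated by linear interpolation. Abbreviation: GI50, concentration required for 50% inhibition of growth.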 Activity calls are given as the source filed them. No stated cut-off is given here; in the data, active = GI50 up to about 1.1 µM and inactive = higher.

Columns and labels:
Assay in all cases: NCI-60 cell line screen, 48 h
[1] = system: 786-0
[2] = system: A498
[3] = system: A549
[4] = system: ACHN
[5] = system: BT-549
[6] = system: CAKI-1
[7] = system: CCRF-CEM
[8] = system: COLO 205
[9] = system: DU-145
[10] = system: EKVX
[11] = system: HCC 2998
[12] = system: HCT-116
[13] = system: HCT-15
[14] = system: HL-60
[15] = system: HOP-62
[16] = system: HOP-92
[17] = system: HT-29
[18] = system: Hs-578T
[19] = system: IGROV-1
[20] = system: KM12
[21] = system: LOX IMVI
[22] = system: M14
[23] = system: MCF7
[24] = system: MDA-MB-231
[25] = system: MDA-MB-435
[26] = system: MDA-N
[27] = system: MOLT-4
[28] = system: Malme-3M
[29] = system: NCI-H226
[30] = system: NCI-H23
[31] = system: NCI-H460
[32] = system: NCI-H522
[33] = system: NCI/ADR-RES
[34] = system: OVCAR-3
[35] = system: OVCAR-4
[36] = system: OVCAR-5
[37] = system: OVCAR-8
[38] = system: PC-3
[39] = system: RPMI-8226
[40] = system: RXF 393
[41] = system: SF-268
[42] = system: SF-295
[43] = system: SF-539
[44] = system: SK-MEL-28
[45] = system: SK-MEL-2
[46] = system: SK-MEL-5
[47] = system: SK-OV-3
[48] = system: SN12C
[49] = system: SNB-19
[50] = system: SNB-75
[51] = system: SR
[52] = system: SW-620
[53] = system: T47D
[54] = system: TK-10
[55] = system: U-251
[56] = system: UACC-257
[57] = system: UACC-62
[58] = system: UO-31
[59] = system: K562

## CCOC(=O)c1nc2cc(C(F)(F)F)ccc2nc1Nc1ccc(Cl)c(Cl)c1
[1]
  GI50: > 100 µM (inactive)
[2]
  GI50: > 100 µM (inactive)
[3]
  GI50: 84.3 µM (inactive)
[4]
  GI50: > 100 µM (inactive)
[5]
  GI50: 86.3 µM (inactive)
[6]
  GI50: > 100 µM (inactive)
[7]
  GI50: 67.5 µM (inactive)
[8]
  GI50: > 100 µM (inactive)
[9]
  GI50: > 100 µM (inactive)
[10]
  GI50: > 100 µM (inactive)
[11]
  GI50: 69.3 µM (inactive)
[12]
  GI50: 69.7 µM (inactive)
[13]
  GI50: > 100 µM
[14]
  GI50: 31.8 µM (inactive)
[15]
  GI50: 76.6 µM (inactive)
[16]
  GI50: 24.2 µM (inactive)
[17]
  GI50: 66.8 µM (inactive)
[18]
  GI50: > 100 µM (inactive)
[19]
  GI50: > 100 µM (inactive)
[20]
  GI50: 65 µM (inactive)
[21]
  GI50: > 100 µM (inactive)
[22]
  GI50: > 100 µM (inactive)
[23]
  GI50: > 100 µM (inactive)
[24]
  GI50: > 100 µM (inactive)
[25]
  GI50: 62.7 µM (inactive)
[26]
  GI50: > 100 µM (inactive)
[27]
  GI50: > 100 µM (inactive)
[28]
  GI50: > 100 µM (inactive)
[29]
  GI50: > 100 µM (inactive)
[30]
  GI50: > 100 µM (inactive)
[31]
  GI50: 35.3 µM (inactive)
[32]
  GI50: > 100 µM (inactive)
[33]
  GI50: > 100 µM (inactive)
[34]
  GI50: > 100 µM (inactive)
[35]
  GI50: 97.5 µM (inactive)
[36]
  GI50: > 100 µM (inactive)
[37]
  GI50: > 100 µM (inactive)
[38]
  GI50: 75.2 µM (inactive)
[39]
  GI50: 33.4 µM (inactive)
[40]
  GI50: > 100 µM (inactive)
[41]
  GI50: > 100 µM (inactive)
[42]
  GI50: 74.6 µM (inactive)
[43]
  GI50: > 100 µM (inactive)
[44]
  GI50: > 100 µM (inactive)
[45]
  GI50: > 100 µM (inactive)
[46]
  GI50: > 100 µM (inactive)
[47]
  GI50: 97.9 µM (inactive)
[48]
  GI50: > 100 µM (inactive)
[49]
  GI50: > 100 µM (inactive)
[50]
  GI50: 58.1 µM (inactive)
[51]
  GI50: 49.9 µM (inactive)
[52]
  GI50: 73.3 µM (inactive)
[53]
  GI50: > 100 µM (inactive)
[54]
  GI50: > 100 µM (inactive)
[55]
  GI50: 53.6 µM (inactive)
[56]
  GI50: > 100 µM (inactive)
[57]
  GI50: > 100 µM (inactive)
[58]
  GI50: > 100 µM (inactive)

## Cn1c(-c2ccc[se]2)ccc1-c1ccc(CO)[se]1
[1]
  GI50: 25.6 µM (inactive)
[2]
  GI50: 0.0389 µM (active)
[3]
  GI50: 52.6 µM (inactive)
[4]
  GI50: 23.2 µM (inactive)
[5]
  GI50: 27.7 µM (inactive)
[6]
  GI50: < 0.01 µM (active)
[7]
  GI50: 17.1 µM (inactive)
[8]
  GI50: 0.367 µM (active)
[9]
  GI50: 35.9 µM (inactive)
[10]
  GI50: 32.7 µM (inactive)
[11]
  GI50: 0.792 µM (active)
[12]
  GI50: 0.826 µM (active)
[13]
  GI50: 18.3 µM
[14]
  GI50: 10 µM (inactive)
[16]
  GI50: 7.41 µM (inactive)
[18]
  GI50: 33 µM (inactive)
[19]
  GI50: < 0.01 µM (active)
[59]
  GI50: 0.159 µM (active)
[20]
  GI50: 32.1 µM (inactive)
[21]
  GI50: 21.8 µM (inactive)
[22]
  GI50: > 66.2 µM (inactive)
[23]
  GI50: 0.0139 µM (active)
[24]
  GI50: 32.6 µM (inactive)
[25]
  GI50: 17.3 µM (inactive)
[26]
  GI50: 18 µM (inactive)
[27]
  GI50: 21.1 µM (inactive)
[28]
  GI50: 10.2 µM (inactive)
[29]
  GI50: 0.302 µM (active)
[30]
  GI50: 24.9 µM (inactive)
[31]
  GI50: 0.0206 µM (active)
[32]
  GI50: 27.9 µM (inactive)
[33]
  GI50: 9.48 µM (inactive)
[34]
  GI50: 0.0348 µM (active)
[35]
  GI50: 0.0392 µM (active)
[36]
  GI50: < 0.0209 µM (active)
[37]
  GI50: 33.1 µM (inactive)
[38]
  GI50: 42.5 µM (inactive)
[39]
  GI50: 1.28 µM (inactive)
[40]
  GI50: 0.239 µM (active)
[41]
  GI50: 44 µM (inactive)
[42]
  GI50: 31.3 µM (inactive)
[43]
  GI50: 26.9 µM (inactive)
[44]
  GI50: 52.8 µM (inactive)
[45]
  GI50: 34.7 µM (inactive)
[46]
  GI50: 24.9 µM (inactive)
[47]
  GI50: 17.1 µM (inactive)
[48]
  GI50: > 76.6 µM (inactive)
[49]
  GI50: > 46.5 µM (inactive)
[50]
  GI50: > 49.4 µM (inactive)
[51]
  GI50: 10.4 µM (inactive)
[52]
  GI50: 0.133 µM (active)
[53]
  GI50: 0.0405 µM (active)
[54]
  GI50: 0.0129 µM (active)
[55]
  GI50: < 0.0129 µM (active)
[56]
  GI50: 0.0461 µM (active)
[57]
  GI50: 0.045 µM (active)
[58]
  GI50: 36.3 µM (inactive)
